Values after ≈ are worked out from the molar mass of the structure shown.
Settings: for aqueous solubility: pH 6.8

MDR1-MDCK efflux ratio	intrinsic clearance, human liver microsomes [mL/min/kg]	intrinsic clearance, rat liver microsomes [mL/min/kg]	aqueous solubility [µg/mL]	fraction unbound, human plasma	fraction unbound, rat plasma	Compound
–	≤ 4.74	≤ 10.7	–	–	–	Cc1nc2ccccc2c(C(=O)O)c1C
–	29.1	608	4.96 (≈ 17 µM)	–	–	CC(C)c1ccc(NC(=O)c2ccc3nccnc3c2)cc1
–	53.7	892	22.5 (≈ 52.1 µM)	–	–	COc1ccc(CCn2c(C)c3c(=O)n(-c4nc5ccccc5s4)[nH]c3cc2=O)cc1
1.04	≤ 4.74	30	70.8 (≈ 239 µM)	–	–	O=C(NCc1ccc(F)cc1)c1ccc(-n2ccnc2)nc1
0.843	24.4	238	–	–	–	Fc1cc(-c2ccncc2)ccc1CNc1ncccn1
1.76	≤ 4.74	50.1	–	–	–	CN1CCC(CNC(=O)c2ncoc2-c2ccc(F)cc2)CC1
–	127	530	8.81 (≈ 30.8 µM)	–	–	CCCCN(C)C(=O)c1cn(-c2ccc(C)c(C)c2)nn1
6.9	101	1210	–	0.0729	0.0603	Nc1ncnc2c1c(-c1cnc3[nH]ccc3c1)nn2C1CCCC1
0.905	397	1270	36 (≈ 95.1 µM)	–	–	O=C(c1cccnc1)N1CCCC(c2cccc(-c3cccc(Cl)c3)n2)C1 (stereo not given)
22	16.2	329	28.6 (≈ 60.8 µM)	0.014	0.00619	C=CC(=O)Nc1cccc(Oc2nc(Nc3ccc(N4CCN(C)CC4)cc3)nc3ccoc23)c1
0.605	119	741	34.7 (≈ 151 µM)	–	–	c1ccc(-c2noc(NCC3CCC3)n2)cc1
–	–	–	41.5 (≈ 207 µM)	–	–	N#CCn1c(C(=O)O)cc2ccccc21
0.581	–	–	0.96 (≈ 3.79 µM)	–	–	c1ccc2c(c1)nnn2Cc1ccc2c(c1)OCO2
0.668	13.1	2060	30.7 (≈ 119 µM)	–	–	CCCNC(=O)c1c(C)nn(-c2ccccc2)c1C
–	–	–	39.1 (≈ 144 µM)	–	–	Cc1noc2nc(-c3ccccc3F)cc(C(=O)O)c12
0.721	82.3	1060	–	–	–	COc1cccc(O[C@H]2CCN(C(=O)c3cc(-c4ccc(C)cc4)on3)CC[C@@H]2O)c1

MDR1-MDCK efflux ratio	intrinsic clearance, human liver microsomes [mL/min/kg]	intrinsic clearance, rat liver microsomes [mL/min/kg]	aqueous solubility [µg/mL]	fraction unbound, human plasma	fraction unbound, rat plasma	Compound
0.838	≤ 4.74	28.4	39.2 (≈ 150 µM)	–	–	CC(C)CN1C(=O)C(=O)N(Cc2ccccn2)C1=O
–	60	1840	–	–	–	O=C(CNC(=O)c1ccccc1Cl)Nc1cccc2c1CCCC2
2.95	13.2	169	31.7 (≈ 101 µM)	–	–	Cc1ccnc(-n2nccc2NC(=O)N2CCCN(C)CC2)c1
2.78	≤ 4.74	19.9	–	–	–	Cn1cc(CN2CCc3nc4ccccc4c(=O)n3CC2)cn1
0.59	22.6	79.3	52.1 (≈ 134 µM)	–	–	FC(F)(F)COc1ccc(CN2CCc3c(cnn3-c3ccccc3)C2)nn1
–	37.8	336	–	–	–	O=C(COc1cccc(-n2cncn2)c1)N1CCc2ccccc21
–	227	327	–	–	–	CC(=O)N1CCCN(Cc2ccc(C(=O)N3CCCC3)cc2)c2ccccc21
0.501	506	3360	27.7 (≈ 105 µM)	–	–	Cn1c(-c2ccccc2)cnc1NCc1ccccc1
–	7.61	22.2	–	–	–	CCCS(=O)(=O)Nc1ccc(F)c(C(=O)c2c[nH]c3ncc(Cl)cc23)c1F
0.589	93.6	566	23.1 (≈ 60.7 µM)	–	–	O=C(CN1CCOC(c2ccc(F)cc2)C1)Nc1ccccc1OC(F)F (stereo not given)
1.06	63.1	2860	13.6 (≈ 45.9 µM)	–	–	COc1ccc2c(c1)CN(C(=O)c1cc(C3CC3)[nH]n1)CC2
0.958	21	676	36 (≈ 105 µM)	–	–	O=S(=O)(N1CCOCC1)N1CCN(Cc2ccccc2F)CC1
0.661	234	2160	29.2 (≈ 102 µM)	–	–	CC(C)c1nc(CCn2ccnc2-c2ccoc2)cs1
0.533	232	337	29.9 (≈ 139 µM)	–	–	Nc1nc2ccccc2nc1N1CCCC1
0.493	52.6	656	–	–	–	OC1CCN(c2nccc(-c3cccs3)n2)CC1
–	–	–	0.73 (≈ 2.47 µM)	–	–	N=C1/C(=C\c2ccco2)C(=O)N=C2Sc3ccccc3N12

Continued, compound first:

Compound	MDR1-MDCK efflux ratio	intrinsic clearance, human liver microsomes [mL/min/kg]	intrinsic clearance, rat liver microsomes [mL/min/kg]	aqueous solubility [µg/mL]	fraction unbound, human plasma	fraction unbound, rat plasma
CCN1CCN(c2ccc(Nc3ncnc4sccc34)cc2)CC1	1.2	≤ 4.74	61.9	–	–	–
CC1(C)O[C@@](C)([C@H]2CC3(CCNCC3)CO2)CC[C@@H]1O	0.443	≤ 4.74	≤ 10.7	42.6 (≈ 150 µM)	–	–
C=CCn1cnc2c(Cl)cc(-c3ccc(C(=O)NC4CC4)o3)cc21	5.09	27.5	115	33.2 (≈ 97 µM)	–	–
O=C(c1ccc2c(c1)CCCC2)N1CCOCC1c1ccn[nH]1 (stereo not given)	4.04	–	–	–	–	–
COCC1CCN(c2noc(-c3cccs3)n2)CC1	0.541	39.6	325	12.9 (≈ 46.1 µM)	–	–
O=C(C1CCCN(C(=O)N2CCCC2)C1)N1CCc2ccccc2C1 (stereo not given)	–	87.1	1010	57.4 (≈ 168 µM)	–	–
Cc1nc(CNC2CCN(C(=O)C3CC3)CC2)cs1	3.43	≤ 4.74	≤ 10.7	42.6 (≈ 152 µM)	–	–
NCC1CCCC1NC(=O)c1cc(N2CCNC2=O)ccc1F (stereo not given)	1.92	≤ 4.74	–	–	0.75	–
CCn1cc(CN2CCC(c3nc(N(C)C)ncc3-c3ccc(OC)cc3)CC2)c(C)n1	13.3	158	473	54 (≈ 124 µM)	–	–
Cn1c2cc(S(C)=O)sc2c2cnn(Cc3cccc(N)c3)c(=O)c21 (stereo not given)	–	4.92	49.6	–	–	–
CC(C)N(CCCNC(=O)Nc1ccc(C(C)(C)C)cc1)C[C@@H]1O[C@@H](n2ccc3c(N)ncnc32)[C@H](O)[C@H]1O	6.05	187	1930	–	–	–
CCn1c(SC)nnc1C1CCN(C)CC1	7.45	≤ 4.74	≤ 10.7	41.2 (≈ 171 µM)	–	–
Cc1cnn(C2CN(CC3(O)CCCCC3)C2)c1	0.488	54.7	1900	32.6 (≈ 131 µM)	–	–
Fc1c(CN2CCC(c3nnc4ccccn34)CC2)cccc1OC1CC1	4.29	15	120	–	–	–
NC1CCCC1C(=O)N1CCC(c2c[nH]c3ncccc23)CC1 (stereo not given)	6.76	≤ 4.74	–	–	0.521	–
OCCN1CCN(c2ccnc3ccc(Br)cc23)CC1	1.74	12.5	114	–	–	–
CN(C)C(=O)OCCN1CCC(c2c[nH]c3ncccc23)CC1	6.4	29.6	101	50 (≈ 158 µM)	–	–
CN(C)c1cc(CNC(=O)C2CCOCC2)ccn1	4.87	≤ 4.74	≤ 10.7	41.2 (≈ 156 µM)	–	–
OCCC1(CNc2ncc(Br)cn2)CC1	0.674	8.65	81.9	–	–	–
COC(C)(C)CCNC(=O)CC1CC(C)(C)NC(C)(C)C1	12.9	≤ 4.74	41.1	–	–	–
CC(=O)N1CCCN(C(=O)Cc2csc(C(C)C)n2)CC1	20.4	≤ 4.74	33.4	55.1 (≈ 178 µM)	–	–
COCC1(CNC(=O)c2cc(Cl)cnc2O)CCC1	5.64	16.3	475	–	–	–
Cn1ccnc1COc1ccc(CO)cc1	–	–	–	57.4 (≈ 263 µM)	–	–
COc1ccccc1Oc1c(NS(=O)(=O)c2ccc(C(C)(C)C)cc2)nc(-c2ncccn2)nc1OCCO	88.2	16	71.8	–	–	–
COCCN(Cc1cccs1)Cc1cccc(C)c1O	–	124	2100	1.05 (≈ 3.6 µM)	–	–
O=C1CSc2ccc(C(=O)Nc3cc(C4CC4)n[nH]3)cc2N1	–	8.23	241	4.31 (≈ 13.7 µM)	–	–
O=C(Nc1cnn(-c2ncccn2)c1)C1CCCCC1	–	≤ 4.74	73.1	–	–	–
O=S1(=O)CCN(C2CCN(CC(F)(F)F)CC2)CC1	0.765	≤ 4.74	20.1	–	–	–
